Measurements published in ChEMBL document CHEMBL1123343, “5-(Halomethyl)-2-pyranones as irreversible inhibitors of alpha-chymotrypsin” (J Med Chem, 1986).

Columns and labels:
[1] = molecular target: T1, Chymotrypsin-C (Homo sapiens) (UniProt Q99895); assay: Inactivation efficiency (I/E) was determined by incubating different ratios of pyrone and […] for 18 hr and then assaying the surviving enzyme activity; NI=No inactivation
T1 sequence (whole entry): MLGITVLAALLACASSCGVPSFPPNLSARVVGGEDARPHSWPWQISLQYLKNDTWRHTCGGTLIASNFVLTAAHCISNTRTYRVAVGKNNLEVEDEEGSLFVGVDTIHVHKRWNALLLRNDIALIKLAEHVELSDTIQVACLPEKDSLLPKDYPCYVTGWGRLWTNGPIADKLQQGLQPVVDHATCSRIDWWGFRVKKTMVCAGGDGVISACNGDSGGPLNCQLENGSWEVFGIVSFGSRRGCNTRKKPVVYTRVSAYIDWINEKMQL

Chymotrypsin-C = molecular target: T2, Chymotrypsin-C (Homo sapiens, UniProt Q99895); assay: Compound was tested for inhibition against alpha-chymotrypsin using N-acetyl tyrosine p-nitrophenyl ester; WI=Weak inhibition
T2 sequence (Q99895 whole entry): T1 sequence (whole entry)

[2] = molecular target: T1, Chymotrypsin-C (Homo sapiens)
Description: Inactivation rate constant (kinact) was determined by exposing Chymotrypsinogen to different concentrations of the purine and periodically diluting aliquots into an assay medium containing one of the chromogenic substrates; NI=No inactivation

[3] = molecular target: T1, Chymotrypsin-C (Homo sapiens); remark: listed apart in the source
Description: Inactivation efficiency (I/E) was determined by incubating different ratios of pyrone and chymotrypsin for 18 hr and then assaying the surviving enzyme activity; NI=No inactivation

[4] = molecular target: T1, Chymotrypsin-C (Homo sapiens); assay: Inactivation rate constant (kinact) was determined by exposing chymotrypsin to different concentrations of the […] and periodically diluting aliquots into an assay medium containing one of the […]
[5] = molecular target: T1, Chymotrypsin-C (Homo sapiens); remark: listed apart in the source
Description: Inactivation efficiency (I/E) was determined by incubating different ratios of pyrone and chymotrypsin for 18 h and then assaying the surviving Chymotrypsinogen enzyme activity

Ki (Chymotrypsin-C)	K inact [4] [min⁻¹]	I/E [5]	Compound	I/E [1]	K inact [2]	I/E [3]
Weak inhibition	–	–	Cc1oc(=O)c(Cc2cccc3ccccc23)cc1CCl	No inactivation	No inactivation	–
Weak inhibition	0.085	1.38	O=c1occ(CCl)cc1Cc1cccc2ccccc12	–	–	–

Compound	Ki (Chymotrypsin-C)	K inact [4] [min⁻¹]	I/E [5]	I/E [1]	K inact [2]	I/E [3]
O=c1occ(CCl)cc1CCl	Weak inhibition	–	–	–	No inactivation	No inactivation
